Reference: US11685739B2, “High penetration drugs and their compositions thereof for treatment of Parkinson diseases” (TECHFIELDS PHARMA CO., LTD, priority 2013, dated 2023)
Where a name gives a salt, the structure may show the parent alone. Read-outs that look alike come from different tables or passages of the source.

Details: human, pH 7.4

## CNCC(=O)NCCc1ccc(OC(=O)c2ccccc2)c(OC(=O)c2ccccc2)c1.Cl [Compound-1, 4-(2-(2-(methylamino)acetamido)ethyl)-1,2,-phenylene dibenzoate hydrochloride]
1 h
  The cumulative amount of test compounds: 0.67 mg
2 h
  The cumulative amount of test compounds: 1.33 mg
4 h
  The cumulative amount of test compounds: 2.67 mg
8 h
  The cumulative amount of test compounds: 5.25 mg

## CCC(CC)C(=O)Oc1ccc(CCNC(=O)OC2CCC3CCCCN3C2)cc1OC(=O)C(CC)CC (stereo not shown) [Compound-7, 4-(2-((((-octahydro-1H-quinolizin-3-yl)oxy)carbonyl)amino)ethyl)-1,2,-phenylene bis(2-ethylbutanoate) acetate]
1 h
  The cumulative amount of test compounds: 0.64 mg
2 h
  The cumulative amount of test compounds: 1.27 mg
4 h
  The cumulative amount of test compounds: 2.57 mg
8 h
  The cumulative amount of test compounds: 5.05 mg

## CCC(CC)C(=O)Oc1ccc(CCNC(=O)C2CCNCC2)cc1OC(=O)C(CC)CC.Cl [Compound-6]
1 h
  The cumulative amount of test compounds: 0.63 mg
2 h
  The cumulative amount of test compounds: 1.25 mg
4 h
  The cumulative amount of test compounds: 2.53 mg
8 h
  The cumulative amount of test compounds: 5.03 mg

## CC(C)OC(=O)[C@H](Cc1ccc(OC(=O)c2ccccc2)c(OC(=O)c2ccccc2)c1)NC(=O)C1CCNCC1 [Compound-18, (S)-4-(3-isopropoxy-3-oxo-2-(piperidine-4-carboxamido)propyl)-1,2-phenylene dibenzoate hydrochloride]
1 h
  The cumulative amount of test compounds: 0.52 mg
2 h
  The cumulative amount of test compounds: 1.03 mg
4 h
  The cumulative amount of test compounds: 2.10 mg
8 h
  The cumulative amount of test compounds: 4.19 mg

## CC(C)OC(=O)[C@H](Cc1ccc2c(c1)OC(=O)CC(N)C(=O)O2)NC(=O)OC(C)OC(=O)C(C)C (stereo partly drawn) [Compound-20(a), (2S)-isopropyl 3-(3-amino-2,5-dioxo-2,3,4,5-tetrahydrobenzo[b][1,4]dioxocin-8-yl)-2-(((1-(isobutyryloxy)ethoxy)carbonyl)amino)propanoate hydrobromide]
1 h
  The cumulative amount of test compounds: 0.42 mg
2 h
  The cumulative amount of test compounds: 0.88 mg
4 h
  The cumulative amount of test compounds: 1.75 mg
8 h
  The cumulative amount of test compounds: 3.49 mg

## CC(OC(=O)NCCc1ccc2c(c1)OC(=O)C(N)CC(=O)O2)OC(=O)C(C)C (stereo not shown) [Compound-8a, 1-(((2-(4-amino-2,5-dioxo-2,3,4,5-tetrahydrobenzo[b][1,4]dioxocin-8-yl)ethyl)carbamoyl)oxy)ethyl isobutyrate hydrofluoride]
1 h
  The cumulative amount of test compounds: 0.63 mg
2 h
  The cumulative amount of test compounds: 1.22 mg
4 h
  The cumulative amount of test compounds: 2.43 mg
8 h
  The cumulative amount of test compounds: 4.83 mg

## CC(C)OC(=O)[C@H](Cc1ccc(OC(=O)C(C)C)c(OC(=O)C(C)C)c1)NC(=O)C1CCN2CCCCC2C1.Cl (stereo partly drawn) [Compound-19, 4-((2S)-3-isopropoxy-3-2-(octahydro-1H-quinolizine-2-carboxamido)-3-oxopropyl)-1,2-phenylene bis(2-methylpropanoate) hydrochloride]
1 h
  The cumulative amount of test compounds: 0.48 mg
2 h
  The cumulative amount of test compounds: 0.98 mg
4 h
  The cumulative amount of test compounds: 2.02 mg
8 h
  The cumulative amount of test compounds: 4.09 mg

## CC(C)OC(=O)[C@H](Cc1ccc(OC(=O)c2ccccc2)c(OC(=O)c2ccccc2)c1)NC(=O)OC1CCN2CCCCC12 (stereo partly drawn) [Compound-22, 4-((2S)-3-isopropoxy-2-((((octahydroindolizin-1-yl)oxy)carbonyl)amino)-3-oxopropyl)-1,2-phenylene dibenzoate acetate]
1 h
  The cumulative amount of test compounds: 0.45 mg
2 h
  The cumulative amount of test compounds: 0.89 mg
4 h
  The cumulative amount of test compounds: 1.78 mg
8 h
  The cumulative amount of test compounds: 3.61 mg

## CCC(CC)OC(=O)[C@H](Cc1ccc(OC(=O)c2ccccc2)c(OC(=O)c2ccccc2)c1)NC(=O)C1CCCN1 (stereo partly drawn) [Compound-17, 4-((2S)-3-oxo-3-(pentan-3-yloxy)-2-(pyrrolidine-2-carboxamido)propyl)-1,2-phenylene dibenzoate hydrofluoride]
1 h
  The cumulative amount of test compounds: 0.58 mg
2 h
  The cumulative amount of test compounds: 1.15 mg
4 h
  The cumulative amount of test compounds: 2.33 mg
8 h
  The cumulative amount of test compounds: 4.71 mg

## CC(=O)Oc1ccccc1C(=O)O [Compound-32, acetylsalicylic acid, reference compound]
1 h
  The cumulative amount of test compounds: 0.001 mg
2 h
  The cumulative amount of test compounds: 0.001 mg
4 h
  The cumulative amount of test compounds: 0.002 mg
8 h
  The cumulative amount of test compounds: 0.003 mg

## CCN(CC)CCOC(=O)C(C)c1ccc(CC(C)C)cc1.Cl (stereo not shown) [Compound-28, 2-(diethylamino)ethyl 2-(4-isobutylphenyl)propionate hydrochloride]
1 h
  The cumulative amount of test compounds: 1.15 mg
2 h
  The cumulative amount of test compounds: 2.28 mg
4 h
  The cumulative amount of test compounds: 4.57 mg
8 h
  The cumulative amount of test compounds: 9.19 mg

## CCN(CC)CCOC(=O)c1ccccc1Nc1c(Cl)ccc(C)c1Cl [Compound-23, 2-(diethylamino)ethyl 2-[(2,6-dichloro-3-methylphenyl)amino]benzoate.acetate]
1 h
  The cumulative amount of test compounds: 0.85 mg
2 h
  The cumulative amount of test compounds: 1.69 mg
4 h
  The cumulative amount of test compounds: 3.38 mg
8 h
  The cumulative amount of test compounds: 6.85 mg

## CCOC(=O)NCCc1ccc(OC(=O)CNC)c(OC(=O)c2ccccc2)c1 [Compound-9b, 5-(2-((ethoxycarbonyl)amino)ethyl)-2-(2-methylamino)acetoxy)phenyl benzoate hydrochloride]
1 h
  The cumulative amount of test compounds: 0.62 mg
2 h
  The cumulative amount of test compounds: 1.26 mg
4 h
  The cumulative amount of test compounds: 2.48 mg
8 h
  The cumulative amount of test compounds: 4.95 mg

## CCOC(=O)[C@@H](N)Cc1ccc(OC(C)=O)c(OC(C)=O)c1.Cl [Compound-14, (S)-4-(2-amino-3-ethoxy-3-oxopropyl)-1,2-phenylene diacetate hydrochloride]
1 h
  The cumulative amount of test compounds: 0.60 mg
2 h
  The cumulative amount of test compounds: 1.21 mg
4 h
  The cumulative amount of test compounds: 2.44 mg
8 h
  The cumulative amount of test compounds: 4.82 mg

## CC(C(=O)SCCN(C)C)c1cccc(Oc2ccccc2)c1.Cl (stereo not shown) [Compound-26]
1 h
  The cumulative amount of test compounds: 1.17 mg
2 h
  The cumulative amount of test compounds: 2.33 mg
4 h
  The cumulative amount of test compounds: 4.65 mg
8 h
  The cumulative amount of test compounds: 9.31 mg

## CCN(CC)CCOC(=O)CC1=C(C)/C(=C/c2ccc([S+](C)[O-])cc2)c2ccc(F)cc21 (stereo not shown) [Compound-24]
1 h
  The cumulative amount of test compounds: 0.87 mg
2 h
  The cumulative amount of test compounds: 1.79 mg
4 h
  The cumulative amount of test compounds: 3.53 mg
8 h
  The cumulative amount of test compounds: 7.15 mg
